# From patent US9796716B2, “Selective inhibitors of Tec and Src protein kinase families” (Pharmascience, Inc., priority 2012, dated 2017)
# What was measured:
# [1] = molecular target: recombinant human full-length Bruton Agammaglobulinemia Tyrosine Kinase (Btk) (Homo sapiens (Human), UniProt Q06187); assay: Btk Kinase Inhibition Assay (fluorescence polarization); type: biochemical; settings: 10 μM ATP, 250 μM substrate, 60 minutes; Ki calculated from IC50 using the Cheng-Prusoff equation
# Procedure: Kinase Binding Btk Kinase Inhibition Assay
# Fluorescence polarization-based kinase assays were performed in 384 well-plate format using histidine tagged recombinant human full-length Bruton Agammaglobulinemia Tyrosine Kinase (Btk) and a modified protocol of the KinEASE™ FP Fluorescein Green Assay supplied from Millipore. Kinase reaction were performed at room temperature for 60 minutes in presence of 250 μM substrate, 10 μM ATP and variable test article concentrations. The reaction was stopped with EDTA/kinase detection reagents and the polarization measured on a Tecan 500 instrument. From the dose-response curve obtained, the IC50 was calculated using Graph Pad Prisms® using a non linear fit curve. The Km for ATP on each enzyme was experimentally determined and the Ki values calculated using the Cheng-Prusoff equation (see: Cheng Y, Prusoff W H. (1973) Relationship between the inhibition constant (K1) and the concentration of inhibitor which causes 50 percent inhibition (I50) of an enzymatic reaction”. Biochem Pharmacol 22 (23): 3099-108).
# [2] = system: Splenocytes (B cell proliferation stimulated with anti-IgM F(ab′)2); assay: Splenic Cell Proliferation Assay; type: cell-based; settings: Mus musculus, Splenocyte, 72 h, CD1 mouse splenocytes, 2.5 ug/ml anti-IgM F(ab′)2 for 72 h, Cell Titer-Glo; read-out: EC50 (nM), Inhibition of splenic cell proliferation
# Procedure: Splenic Cell Proliferation Assay
# Splenocytes were obtained from 6 week old male CD1 mice (Charles River Laboratories Inc.). Mouse spleens were manually disrupted in PBS and filtered using a 70 um cell strainer followed by ammonium chloride red blood cell lysis. Cells were washed, resuspended in Splenocyte Medium (HyClone RPMI supplemented with 10% heat-inactivated FBS, 0.5× non-essential amino acids, 10 mM HEPES, 50 uM beta mercaptoethanol) and incubated at 37° C., 5% CO2 for 2 h to remove adherent cells. Suspension cells were seeded in 96 well plates at 50,000 cells per well and incubated at 37° C., 5% CO2 for 1 h. Splenocytes were pre-treated in triplicate with 10,000 nM curves of Formula 1 compounds for 1 h, followed by stimulation of B cell proliferation with 2.5 ug/ml anti-IgM F(ab′)2 (Jackson ImmunoResearch) for 72 h. Cell proliferation was measured by Cell Titer-Glo Luminescent Assay (Promega). EC50 values (50% proliferation in the presence of compound as compared to vehicle treated controls) were calculated from dose response compound curves using GraphPad Prism Software.
# Sequence of recombinant human full-length Bruton Agammaglobulinemia Tyrosine Kinase (Btk) (Q06187 whole entry): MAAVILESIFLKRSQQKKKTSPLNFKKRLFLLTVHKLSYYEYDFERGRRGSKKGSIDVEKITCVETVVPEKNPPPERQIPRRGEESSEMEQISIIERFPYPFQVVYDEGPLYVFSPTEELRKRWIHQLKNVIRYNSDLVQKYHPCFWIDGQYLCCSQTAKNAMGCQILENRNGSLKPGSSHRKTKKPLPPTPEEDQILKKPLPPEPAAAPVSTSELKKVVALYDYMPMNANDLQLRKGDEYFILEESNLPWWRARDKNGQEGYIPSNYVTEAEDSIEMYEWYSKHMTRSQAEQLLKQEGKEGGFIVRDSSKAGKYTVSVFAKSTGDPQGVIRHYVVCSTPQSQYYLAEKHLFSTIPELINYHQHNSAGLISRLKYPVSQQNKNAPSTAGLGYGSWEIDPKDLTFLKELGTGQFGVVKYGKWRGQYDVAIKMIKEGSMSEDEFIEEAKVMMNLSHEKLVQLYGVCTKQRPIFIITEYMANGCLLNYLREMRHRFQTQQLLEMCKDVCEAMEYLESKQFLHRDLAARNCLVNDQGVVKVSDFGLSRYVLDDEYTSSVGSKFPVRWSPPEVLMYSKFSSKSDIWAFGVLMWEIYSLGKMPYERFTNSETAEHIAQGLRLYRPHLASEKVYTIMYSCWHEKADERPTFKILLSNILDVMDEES
Ki [1] [nM],SMILES,EC50 [2] [nM]
< 100,Cn1nc(-c2ccc(Oc3cccc(COc4ccccc4C#N)c3)cc2)c2c(N)ncnc21 [Compound 17],100 to 1000
< 100,CC(C)(C)OC(=O)N1CCCC(n2nc(-c3ccc(Oc4cccc(OCc5cncs5)c4)cc3)c3c(N)ncnc32)C1 (stereo not drawn) [Compound 49],< 100
< 100,Nc1ncnc2c1c(-c1ccc(Oc3cccc(OCc4cncs4)c3)cc1)nn2C1CCNCC1 [Compound 43],100 to 1000
< 100,Nc1ncnc2c1c(-c1ccc(Oc3cccc(OCc4cncs4)c3)cc1)nn2CCN1CCCC1 [Compound 39],100 to 1000
< 100,Cc1ccc(COc2cc(F)cc(Oc3ccc(-c4nn(C5CCOCC5)c5ncnc(N)c45)cc3)c2)cn1 [Compound 65],< 100
< 100,Cn1cncc1CCc1cc(F)cc(Oc2ccc(-c3nn(C4CCOCC4)c4ncnc(N)c34)cc2)c1 [Compound 67],100 to 1000
< 100,Cn1nc(-c2ccc(Oc3cccc(OCc4ccccc4C#N)c3)cc2)c2c(N)ncnc21 [Compound 30],< 100
< 100,N#Cc1ccccc1COc1cccc(Oc2ccc(-c3nn(C4CCOCC4)c4ncnc(N)c34)cc2)c1 [Compound 35],< 100
< 100,Nc1ncnc2c1c(-c1ccc(Oc3cccc(OCc4ccccc4)c3)cc1)nn2C1CCOCC1 [Compound 21],< 100
< 100,Nc1ncnc2c1c(-c1ccc(Oc3cccc(COc4ccccc4)c3)cc1)nn2C1CCCC1 [Compound 13],< 100
< 100,CC(=O)N1CCC[C@@H](n2nc(-c3ccc(Oc4cccc(COc5ccccc5C#N)c4)cc3)c3c(N)ncnc32)C1 [Compound 25],< 100
< 100,Cn1nc(-c2ccc(Oc3cccc(OCc4ccccc4C(F)(F)F)c3)cc2)c2c(N)ncnc21 [Compound 20],< 100
< 100,CC(=O)N1CCC[C@@H](n2nc(-c3ccc(Oc4cccc(OCc5ccccc5)c4)cc3)c3c(N)ncnc32)C1 [Compound 6],< 100
< 100,Cn1cncc1COc1cccc(Oc2ccc(-c3nn(C4CCOCC4)c4ncnc(N)c34)cc2)c1 [Compound 48],< 100
< 100,Nc1ncnc2c1c(-c1ccc(Oc3cccc(OCc4ccc(Cl)cc4)c3)cc1)nn2C1CCCC1 [Compound 9],100 to 1000
< 100,Nc1ncnc2c1c(-c1ccc(Oc3cc(F)cc(OCc4cncn4CCOCc4ccccc4)c3)cc1)nn2C1CCOCC1 [Compound 97],100 to 1000
< 100,Nc1ncnc2c1c(-c1ccc(Oc3cc(F)cc(OCc4cncnc4)c3)cc1)nn2C1CCOCC1 [Compound 68],< 100
< 100,CCCC(=O)N1CCC[C@@H](n2nc(-c3ccc(Oc4cccc(OCc5ccccc5)c4)cc3)c3c(N)ncnc32)C1 [Compound 7],100 to 1000
< 100,Nc1ncnc2c1c(-c1ccc(Oc3cc(F)cc(CCc4ccccn4)c3)cc1)nn2C1CCOCC1 [Compound 86],100 to 1000
< 100,Nc1ncnc2[nH]nc(-c3ccc(Oc4cccc(OCc5ccccc5)c4)cc3)c12 [Compound 1],100 to 1000
< 100,Nc1ncnc2c1c(-c1ccc(Oc3cccc(OCc4ccccc4C(F)(F)F)c3)cc1)nn2C1CCCC1 [Compound 29],< 100
< 100,Nc1ncnc2c1c(-c1ccc(Oc3cc(F)cc(OCc4cncn4Cc4ccccc4)c3)cc1)nn2C1CCOCC1 [Compound 76],100 to 1000
< 100,COc1cccc(COc2cccc(Oc3ccc(-c4nn(C5CCCC5)c5ncnc(N)c45)cc3)c2)c1 [Compound 10],100 to 1000
< 100,Cn1nc(-c2ccc(Oc3cccc(OCc4ccccc4)c3)cc2)c2c(N)ncnc21 [Compound 16],100 to 1000
< 100,Nc1ncnc2c1c(-c1ccc(Oc3cccc(OCc4cncs4)c3)cc1)nn2CCc1ccccc1 [Compound 42],< 100
< 100,CC(C)C(=O)N1CCC[C@@H](n2nc(-c3ccc(Oc4cccc(OCc5ccccc5)c4)cc3)c3c(N)ncnc32)C1 [Compound 8],< 100
< 100,Nc1ncnc2c1c(-c1ccc(Oc3cccc(OCc4cncs4)c3)cc1)nn2C1CCCNC1 (stereo not drawn) [Compound 51],< 100

# Continued, compound first:
SMILES,Ki [1] [nM],EC50 [2] [nM]
Cc1ncc(COc2cc(F)cc(Oc3ccc(-c4nn(CC(C)(C)O)c5ncnc(N)c45)cc3)c2)cn1 [Compound 122],< 100,100 to 1000
Cn1cncc1COc1cc(F)cc(Oc2ccc(-c3nn(C4CCCC4)c4ncnc(N)c34)c(F)c2)c1 [Compound 92],< 100,< 100
Cc1ncc(COc2cc(F)cc(Oc3ccc(-c4nn(CCCN5CCOCC5)c5ncnc(N)c45)cc3)c2)s1 [Compound 55],< 100,< 100
[2H]C([2H])(Oc1cc(F)cc(Oc2ccc(-c3nn(C4CCOCC4)c4ncnc(N)c34)cc2)c1)c1cnc(C)s1 [Compound 64],< 100,< 100
Nc1ncnc2c1c(-c1ccc(Oc3cc(F)cc(OCc4cncn4CCO)c3)cc1)nn2C1CCOCC1 [Compound 99],< 100,100 to 1000
Cn1cncc1COc1cc(F)cc(Oc2ccc(-c3nn(C4CCOCC4)c4ncnc(N)c34)c(F)c2)c1 [Compound 73],< 100,< 100
Cc1ncc(COc2cccc(Oc3ccc(-c4nn(C5CCOCC5)c5ncnc(N)c45)c(F)c3)c2)s1 [Compound 70],< 100,< 100
Cn1cncc1COc1cc(F)cc(Oc2ccc(-c3nn(C4CCOCC4)c4ncnc(N)c34)cc2F)c1 [Compound 72],< 100,100 to 1000
Cc1ncc(COc2cc(F)cc(Oc3ccc(-c4nn(C(CO)CO)c5ncnc(N)c45)cc3)c2)cn1 [Compound 130],< 100,100 to 1000
Cc1ncc(COc2cc(F)cc(Oc3ccc(-c4nn(CCN5CCCC5)c5ncnc(N)c45)cc3)c2)s1 [Compound 57],< 100,100 to 1000
Cc1ncc(COc2cc(F)cc(Oc3ccc(-c4nn(CC(C)(C)O)c5ncnc(N)c45)cc3)c2)n1C [Compound 121],< 100,100 to 1000
Cc1ncc(COc2cc(F)cc(Oc3ccc(-c4nn(CCO)c5ncnc(N)c45)cc3)c2)s1 [Compound 81],< 100,< 100
[2H]C([2H])(Oc1cc(F)cc(Oc2ccc(-c3nn(C4CCOCC4)c4ncnc(N)c34)cc2)c1)c1cncn1C [Compound 75],< 100,< 100
Cc1ccc(COc2cc(F)cc(Oc3ccc(-c4nn(C5CCOCC5)c5ncnc(N)c45)c(F)c3)c2)cn1 [Compound 95],< 100,< 100
Cn1cncc1COc1cc(F)cc(Oc2ccc(-c3nn(CCCO)c4ncnc(N)c34)cc2)c1 [Compound 116],< 100,< 100
Cc1ccc(COc2cc(F)cc(Oc3ccc(-c4nn(CCO)c5ncnc(N)c45)cc3)c2)cn1 [Compound 88],< 100,< 100
Cc1ncc(COc2cc(F)cc(Oc3ccc(-c4nn(C(C)(C)C)c5ncnc(N)c45)cc3)c2)cn1 [Compound 129],< 100,< 100
Cc1ncc(COc2cc(F)cc(Oc3ccc(-c4nn(CCN5CCOCC5)c5ncnc(N)c45)cc3)c2)s1 [Compound 52],< 100,< 100
CN(C)CCn1nc(-c2ccc(Oc3cccc(OCc4cncs4)c3)cc2)c2c(N)ncnc21 [Compound 34],< 100,100 to 1000
Nc1ncnc2c1c(-c1ccc(Oc3cccc(OCc4cncs4)c3)cc1)nn2CCN1CCOCC1 [Compound 44],< 100,< 100
Cc1ccc(COc2cc(F)cc(Oc3ccc(-c4nn(CCCO)c5ncnc(N)c45)cc3)c2)cn1 [Compound 96],< 100,< 100
Cc1ccc(COc2cc(F)cc(Oc3ccc(-c4nn(CC5(C)COC5)c5ncnc(N)c45)cc3)c2)cn1 [Compound 126],< 100,100 to 1000
CC(=O)n1nc(-c2ccc(Oc3cccc(OCc4ccccc4)c3)cc2)c2c(N)ncnc21 [Compound 45],–,100 to 1000
[2H]C([2H])(Oc1cc(F)cc(Oc2ccc(-c3nn(C4CCOCC4)c4ncnc(N)c34)cc2)c1)c1ccc(C)nc1 [Compound 94],–,< 100
[2H]C([2H])(Oc1cc(F)cc(Oc2ccc(-c3nn(C4CCOCC4)c4ncnc(N)c34)c(F)c2)c1)c1cncn1C [Compound 89],–,< 100
Cc1ncc(COc2cc(F)cc(Oc3ccc(-c4nn(C[C@@H]5CCCN5)c5ncnc(N)c45)cc3)c2)s1 [Compound 56],–,100 to 1000
